The values below come from patent US8735425B2, “Tetrahydroisoquinoline derivative” (Daiichi Sankyo Company, Limited, priority 2008, dated 2014).

SMILES strings stand for the structures.

Assay [1] has as its target T1, DGAT1 enzyme (Homo sapiens, UniProt O75907).
T1 construct: made in house
T1 sequence (O75907 1-488): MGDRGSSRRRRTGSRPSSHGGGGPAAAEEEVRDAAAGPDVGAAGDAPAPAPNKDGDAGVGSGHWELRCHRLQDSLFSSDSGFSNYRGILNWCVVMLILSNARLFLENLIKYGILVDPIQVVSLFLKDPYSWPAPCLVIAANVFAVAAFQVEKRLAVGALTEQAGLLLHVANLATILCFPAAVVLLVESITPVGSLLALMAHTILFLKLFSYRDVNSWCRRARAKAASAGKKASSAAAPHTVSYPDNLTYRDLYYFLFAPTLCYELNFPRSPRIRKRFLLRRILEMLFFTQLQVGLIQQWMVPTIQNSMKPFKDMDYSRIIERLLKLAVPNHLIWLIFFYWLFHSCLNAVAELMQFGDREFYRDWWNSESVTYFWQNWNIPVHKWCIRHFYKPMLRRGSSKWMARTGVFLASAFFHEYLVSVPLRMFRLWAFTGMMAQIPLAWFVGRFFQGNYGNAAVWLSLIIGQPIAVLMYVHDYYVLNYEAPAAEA
The assay is described as follows: DGAT1 inhibitory activity test. The assay is classed as biochemical. As to conditions: test compound concentration of 0.05 μg/ml; read-out: Inhibitory Rate. In outline:
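Reaction at 23° C for 30 min in 175 mM Tris-HCl pH 8.0, 8 mM MgCl2, 1 mg/ml BSA, 0.5% Triton X-100 with 0.3 mM 1,2-dioleoyl-sn-glycerol and 10 μM [14C]-oleoyl-CoA. Triglyceride extracted into heptane, separated by TLC, radioactivity quantified; % inhibition versus vehicle control, 0-min background subtracted.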

Assay [2] has as its system Male C57BL/6N mice. The assay is described as follows: Triglyceride absorption suppression after fat loading (in vivo DGAT1 inhibitory effect). As to conditions: Mus musculus, po; dose of 10 mg/kg or lower, orally administered, mice fasted overnight, plasma triglyceride after fat loading; read-out: Triglyceride absorption suppressive activity. Here is the method: The DGAT1 enzyme is important for the digestion and absorption of triglycerides, and the inhibition of DGAT1 in the small intestine suppresses the absorption of triglycerides. The in vivo activity of its DGAT1 inhibitory effect was evaluated with the suppressed absorption of triglycerides after fat loading as an index. Male C57BL/6N mice (7-12 weeks old, body weight: 17-25 g, Charles River Laboratories Japan Inc.) fasted overnight were assigned to Vehicle group 1, Vehicle group 2, and each test compound group, to which a vehicle (0.5% methylcellulose) or each test compound (1 to 10 mg/kg) suspended in vehicle was orally administered (5 mL/kg). After a given time, a lipoprotein lipase inhibitor (Pluronic-F127: Sigma-Aldrich Corp., 1 g/kg, 20% by weight dissolved in saline) was intraperitoneally administered (5 mL/kg) to each group. Immediately thereafter, distilled water for the Vehicle group 1 or a 20% fat-containing emulation (Intralipid 20%: TERUMO CORP., Japan) for the Vehicle group 2 and the compound groups were orally administered thereto (0.2 mL/mouse). After a given time of 1 to 4 hours after administration, blood was collected from the tail vein or the right ventricle, and plasma was immediately separated and collected. Then, the triglyceride concentration in plasma was measured using a commercially available kit (Triglyceride E-Test Wako: Wako Pure Chemical Industries, Ltd.). In this method, the administration of the lipoprotein lipase inhibitor suppresses the hydrolysis of triglycerides in the blood such that the triglycerides are accumulated in the blood. These triglycerides are derived from two origins: exogenous triglycerides absorbed in the gastrointestinal tract and endogenous triglycerides released from the liver. The triglyceride absorption suppressive activity of each test compound was calculated based on the equation shown below by removing the influence of the endogenous triglycerides. In this context, each test compound was separately confirmed to have no influence on the concentration of the endogenous triglycerides.
Triglyceride absorption suppressive activity (%)=100−[(Triglyceride concentration of each test compound group)−(Triglyceride concentration of Vehicle group 1)]/[(Triglyceride concentration of Vehicle group 2)−(Triglyceride concentration of Vehicle group 1)]×100

Regarding `CN(C(=O)N1CCc2cc(NC(=O)Nc3ccccc3F)ccc2C1)C1CCC(CC(=O)O)CC1` (centres unmarked) [Example 108, [4-({6-[3-(2-fluoro-phenyl)-ureido]-3,4-dihydro-1H-isoquinoline-2-carbonyl}-methyl-amino)-cyclohexyl]-acetic acid], in assay [1], the inhibition at 0.05 µg/mL is at least 50%. Further, in assay [2], the inhibition in vivo at up to 10 mg/kg is at least 60%.

`O=C(Nc1ccc2c(c1)CCN(C(=O)O[C@H]1CC[C@H](Cc3nn[nH]n3)CC1)C2)Nc1ccccc1F` [Example 44, trans-6-[3-(2-fluoro-phenyl)-ureido]-3,4-dihydro-1H-isoquinoline-2-carboxylic acid 4-(2H-tetrazol-5-ylmethyl)-cyclohexyl ester]: the inhibition at 0.05 µg/mL in assay [1] was at least 50%. Besides, in assay [2], the inhibition in vivo at up to 10 mg/kg was at least 60%.

Take `CCOc1cc(NC(=O)Nc2ccc3c(c2)CCN(C(=O)O[C@H]2CC[C@H](CC(=O)O)CC2)C3)ccc1F` [Example 59, trans-6-[3-(3-ethoxy-4-fluoro-phenyl)-ureido]-3,4-dihydro-1H-isoquinoline-2-carboxylic acid 4-carboxymethyl-cyclohexyl ester]: the inhibition at 0.05 µg/mL in assay [1] was at least 50%. In assay [2], the inhibition in vivo at up to 10 mg/kg was at least 60%.

Regarding `O=C(O)C[C@H]1CC[C@H](OC(=O)N2CCc3cc(NC(=O)Nc4cc(F)c(F)cc4F)ccc3C2)CC1` [Example 31, trans-6-[3-(2,4,5-trifluoro-phenyl)-ureido]-3,4-dihydro-1H-isoquinoline-2-carboxylic acid 4-carboxymethyl-cyclohexyl ester], the inhibition at 0.05 µg/mL in assay [1] is at least 50%. The inhibition in vivo at up to 10 mg/kg in assay [2] was at least 60%.

For `CCOc1cccc(NC(=O)Nc2ccc3c(c2)CCN(C(=O)O[C@@H]2CC[C@@H](CC(=O)O)C[C@@H]2C)C3)c1` (relative stereo) [Example 100, 6-[3-(3-ethoxy-phenyl)-ureido]-3,4-dihydro-1H-isoquinoline-2-carboxylic acid t-4-carboxymethyl-c-2-methyl-r-1-cyclohexyl ester], in assay [1], the inhibition at 0.05 µg/mL is at least 50%. Further, the inhibition in vivo at up to 10 mg/kg in assay [2] was at least 60%.

As for `O=C(O)C[C@H]1CC[C@H](OC(=O)N2CCc3cc(NC(=O)Nc4ccccc4F)ccc3C2)CC1` [Example 2, trans-6-[3-(2-fluoro-phenyl)-ureido]-3,4-dihydro-1H-isoquinoline-2-carboxylic acid 4-carboxymethyl-cyclohexyl ester], in assay [1], the inhibition at 0.05 µg/mL is at least 50%. The inhibition in vivo at up to 10 mg/kg in assay [2] is at least 60%.

With `Cc1cncc(NC(=O)Nc2ccc3c(c2)CCN(C(=O)O[C@H]2CC[C@H](CC(=O)O)CC2)C3)c1` [Example 90, trans-6-[3-(5-methyl-pyridin-3-yl)-ureido]-3,4-dihydro-1H-isoquinoline-2-carboxylic acid 4-carboxymethyl-cyclohexyl ester], in assay [1], the inhibition at 0.05 µg/mL is at least 50%. Also, the inhibition in vivo at up to 10 mg/kg in assay [2] is at least 60%.

Regarding `CN(C)c1cccc(NC(=O)Nc2ccc3c(c2)CCN(C(=O)O[C@H]2CC[C@H](CC(=O)O)CC2)C3)c1` [Example 75, trans-6-[3-(3-dimethylamino-phenyl)-ureido]-3,4-dihydro-1H-isoquinoline-2-carboxylic acid 4-carboxymethyl-cyclohexyl ester], the inhibition at 0.05 µg/mL in assay [1] was at least 50%. The inhibition in vivo at up to 10 mg/kg in assay [2] is at least 60%.

With `CCOc1ccc(NC(=O)Nc2ccc3c(c2)CCN(C(=O)O[C@H]2CC[C@H](CC(=O)O)CC2)C3)cc1` [Example 80, trans-6-[3-(4-ethoxy-phenyl)-ureido]-3,4-dihydro-1H-isoquinoline-2-carboxylic acid 4-carboxymethyl-cyclohexyl ester], the inhibition at 0.05 µg/mL in assay [1] is at least 50%. Besides, the inhibition in vivo at up to 10 mg/kg in assay [2] is at least 60%.

Take `O=C(Nc1ccc2c(c1)CCN(C(=O)O[C@H]1CC[C@H](Cc3noc(=O)[nH]3)CC1)C2)Nc1ccccc1F` [Example 41, trans-6-[3-(2-fluoro-phenyl)-ureido]-3,4-dihydro-1H-isoquinoline-2-carboxylic acid 4-(5-oxo-4,5-dihydro-[1,2,4]oxadiazol-3-ylmethyl)-cyclohexyl ester]: in assay [1], the inhibition at 0.05 µg/mL is at least 50%. In assay [2], the inhibition in vivo at up to 10 mg/kg is at least 60%.

For the molecule `COc1ncccc1NC(=O)Nc1ccc2c(c1)CCN(C(=O)O[C@H]1CC[C@H](CC(=O)O)CC1)C2` [Example 24, trans-6-[3-(2-methoxy-pyridin-3-yl)-ureido]-3,4-dihydro-1H-isoquinoline-2-carboxylic acid 4-carboxymethyl-cyclohexyl ester], the inhibition at 0.05 µg/mL in assay [1] is at least 50%. In addition, in assay [2], the inhibition in vivo at up to 10 mg/kg is at least 60%.

`Cc1cc(NC(=O)Nc2ccc3c(c2)CCN(C(=O)O[C@H]2CC[C@H](CC(=O)O)CC2)C3)no1` [Example 97, trans-6-[3-(5-methyl-isoxazol-3-yl)-ureido]-3,4-dihydro-1H-isoquinoline-2-carboxylic acid 4-carboxymethyl-cyclohexyl ester]: in assay [1], the inhibition at 0.05 µg/mL was at least 50%. Also, the inhibition in vivo at up to 10 mg/kg in assay [2] was at least 60%.

As to `O=C(Nc1ccc2c(c1)CCN(C(=O)O[C@H]1CC[C@H](Cc3cc(O)no3)CC1)C2)Nc1ccccc1F` [Example 43, trans-6-[3-(2-fluoro-phenyl)-ureido]-3,4-dihydro-1H-isoquinoline-2-carboxylic acid 4-(3-hydroxy-isoxazol-5-ylmethyl)-cyclohexyl ester], the inhibition at 0.05 µg/mL in assay [1] was at least 50%. Moreover, the inhibition in vivo at up to 10 mg/kg in assay [2] is at least 60%.

Consider `COc1ccccc1NC(=O)Nc1ccc2c(c1)CCN(C(=O)O[C@H]1CC[C@H](CC(=O)O)CC1)C2` [Example 21, trans-6-[3-(2-methoxy-phenyl)-ureido]-3,4-dihydro-1H-isoquinoline-2-carboxylic acid 4-carboxymethyl-cyclohexyl ester], for which the inhibition at 0.05 µg/mL in assay [1] is at least 50%. For the same molecule, the inhibition in vivo at up to 10 mg/kg in assay [2] is at least 60%.

On to `O=C(O)C[C@H]1CC[C@H](OC(=O)N2CCc3cc(Nc4nc5ccccc5o4)ccc3C2)CC1` [Example 25, trans-6-(benzoxazol-2-ylamino)-3,4-dihydro-1H-isoquinoline-2-carboxylic acid 4-carboxymethyl-cyclohexyl ester], for which the inhibition at 0.05 µg/mL in assay [1] was at least 50%. The inhibition in vivo at up to 10 mg/kg in assay [2] was at least 60%.

With `CC(C)(C)c1cccc(NC(=O)Nc2ccc3c(c2)CCN(C(=O)O[C@H]2CC[C@H](CC(=O)O)CC2)C3)c1` [Example 76, trans-6-[3-(3-tert-butyl-phenyl)-ureido]-3,4-dihydro-1H-isoquinoline-2-carboxylic acid 4-carboxymethyl-cyclohexyl ester], in assay [1], the inhibition at 0.05 µg/mL was at least 50%. Moreover, in assay [2], the inhibition in vivo at up to 10 mg/kg was at least 60%.

`CCOc1cccc(NC(=O)Nc2ccc3c(c2)CCN(C(=O)O[C@@H]2CC[C@@H](CC(=O)O)C[C@H]2C)C3)c1` (relative stereo) [Example 99, 6-[3-(3-ethoxy-phenyl)-ureido]-3,4-dihydro-1H-isoquinoline-2-carboxylic acid t-4-carboxymethyl-t-2-methyl-r-1-cyclohexyl ester]: in assay [1], the inhibition at 0.05 µg/mL is at least 50%. Besides, the inhibition in vivo at up to 10 mg/kg in assay [2] was at least 60%.

In the case of `O=C(O)C[C@H]1CC[C@H](OC(=O)N2CCc3cc(NC(=O)Nc4cc(F)c(F)c(F)c4)ccc3C2)CC1` [Example 32, trans-6-[3-(3,4,5-trifluoro-phenyl)-ureido]-3,4-dihydro-1H-isoquinoline-2-carboxylic acid 4-carboxymethyl-cyclohexyl ester], the inhibition at 0.05 µg/mL in assay [1] was at least 50%. Further, the inhibition in vivo at up to 10 mg/kg in assay [2] is at least 60%.

As to `CC(C)(C)NC(=O)Nc1ccc2c(c1)CCN(C(=O)O[C@H]1CC[C@H](CC(=O)O)CC1)C2` [Example 82, trans-6-(3-tert-butyl-ureido)-3,4-dihydro-1H-isoquinoline-2-carboxylic acid 4-carboxymethyl-cyclohexyl ester], the inhibition at 0.05 µg/mL in assay [1] is at least 50%. In addition, the inhibition in vivo at up to 10 mg/kg in assay [2] was at least 60%.
